Experimental data reported in publication PMC7385556 (ACS chemical biology, 2020).
Several values for one entry are separate records, joined by “and”; a condition that tells them apart may be missing. Equal values may be shown once.

System: Mtb H37Rv mc^2 6230
Assay: MIC of compounds alone against Mtb H37Rv mc^2 6230
Format: cell-based, Mycobacterium tuberculosis
Conditions: compound alone, absence of KAN

NC[C@H]1O[C@H](O[C@H]2[C@H](O)[C@@H](O[C@H]3O[C@H](CO)[C@@H](O)[C@H](N)[C@H]3O)[C@H](N)C[C@@H]2N)[C@H](O)[C@@H](O)[C@@H]1O [KAN, kanamycin]
H37Rv mc^2 6230 MIC: <1 μg/mL and <1.72 μM
